# Patent US11286268B1, “EIF4E-inhibiting compounds and methods” (EFFECTOR THERAPEUTICS, INC., priority 2019, dated 2022)
# Read-outs that look alike come from different tables or passages of the source.
# Molecular target: recombinant eIF4E (Homo sapiens (Human), UniProt P06730)
# Assay: Fluorescence polarization competition assay for eIF4E binding potency
# Summary of the method: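 Protein and fluorescent cap-analog probe (EDA-m7GDP-ATTO-550) were mixed first for 5 min, after which serially diluted compound was added to final 75 nM eIF4E, 20 nM probe, 1% DMSO. Reactions equilibrated 30 min at room temperature before polarization was measured.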
# [1] = fluorescence polarization competition, 75 nM recombinant eIF4E, 20 nM EDA-m7GDP-ATTO-550, IC50 class, read-out: elF4E FP
# [2] = inhibition of eIF4E/EDA-m7GDP-ATTO-550 binding by 50%, Table 4B calculated values, read-out: IC50
# recombinant eIF4E, sequence (P06730 whole entry): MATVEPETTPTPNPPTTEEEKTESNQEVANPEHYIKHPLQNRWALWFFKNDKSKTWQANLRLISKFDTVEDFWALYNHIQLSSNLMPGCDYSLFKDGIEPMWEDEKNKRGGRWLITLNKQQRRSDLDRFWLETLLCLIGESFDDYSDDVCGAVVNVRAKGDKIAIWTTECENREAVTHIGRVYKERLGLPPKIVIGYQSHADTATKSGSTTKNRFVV
IC50 [1],IC50 [2],SMILES
< 0.05 µM,0.0196 µM,Cc1cc(-c2cc(Cl)ccc2OCCn2c(C)nc3cc4c(c(C#N)c3c2=O)CN(C)C4)c2scc(C(=O)O)c2n1 [compound 712]
< 0.05 µM,0.0314 µM,Cc1cc(-c2cc(Cl)ccc2OCCn2c(C)nc3cc(C(F)(F)F)c(CC4CCN(C)CC4)c(C#N)c3c2=O)c2scc(C(=O)O)c2n1 [compound 713]
< 0.05 µM,0.0472 µM,Cc1cc(-c2cc(Cl)ccc2OCCn2c(C)nc3cc(C(F)(F)F)c(CC4CCNCC4)c(C#N)c3c2=O)c2scc(C(=O)O)c2n1 [compound 714]
< 0.05 µM,0.0201 µM,Cc1cc(-c2cc(Cl)ccc2OCCn2c(C)nc3cc(C)c(CN4CCN(C)CC4)c(C#N)c3c2=O)c2scc(C(=O)O)c2n1 [compound 718]
< 0.05 µM,0.0285 µM,Cc1ccc(-c2cc(Cl)ccc2OCCn2c(C)nc3cc(C(F)(F)F)c(CN4CCN(C)CC4)c(C#N)c3c2=O)c2scc(C(=O)O)c12 [compound 719]
0.05 to 1 µM,0.199 µM,Cc1nc2cc(Cl)c3c(cnn3C)c2c(=O)n1CCOc1ccc(Cl)cc1-c1ccnc2c(C(=O)O)csc12 [compound 720]
< 0.05 µM,0.0206 µM,COc1ccc(-c2cc(Cl)ccc2OCCn2c(C)nc3c(C)ncc(C#N)c3c2=O)c2scc(C(=O)O)c12 [compound 721]
< 0.05 µM,0.038 µM,Cc1ncc(C#N)c2c(=O)n(CCOc3ccc(Cl)cc3-c3ccc(C)c4c(C(=O)O)csc34)c(C)nc12 [compound 722]
< 0.05 µM,0.0287 µM,Cc1ncc(C#N)c2c(=O)n(CCOc3ccc(Cl)cc3-c3ccc(Cl)c4c(C(=O)O)csc34)c(C)nc12 [compound 723]
< 0.05 µM,0.0377 µM,Cc1cc(-c2cc(Cl)ccc2OCCn2c(C)nc3cc(CF)c(C)c(C#N)c3c2=O)c2scc(C(=O)O)c2n1 [compound 724]
< 0.05 µM,0.0382 µM,Cc1ccc(-c2cc(Cl)ccc2OCCn2c(C)nc3c(N(C)C)ncc(C#N)c3c2=O)c2scc(C(=O)O)c12 [compound 725]
0.05 to 1 µM,0.053 µM,COc1ncc(C#N)c2c(=O)n(CCOc3ccc(Cl)cc3-c3ccc(C)c4c(C(=O)O)csc34)c(C)nc12 [compound 726]
< 0.05 µM,0.0294 µM,COCc1ncc(C#N)c2c(=O)n(CCOc3ccc(Cl)cc3-c3ccc(C)c4c(C(=O)O)csc34)c(C)nc12 [compound 727]
< 0.05 µM,0.031 µM,Cc1cc(-c2cc(Cl)ccc2OCCn2c(C)nc3c(C)nc(C(F)F)c(C#N)c3c2=O)c2scc(C(=O)O)c2n1 [compound 728]
0.05 to 1 µM,0.0925 µM,Cc1ccc(-c2cc(Cl)ccc2OCCn2c(C)nc3c(C#N)nc(-c4cccnc4)c(C)c3c2=O)c2scc(C(=O)O)c12 [compound 729]
0.05 to 1 µM,0.051 µM,Cc1cc(-c2cc(Cl)ccc2OCCn2c(C)nc3c(C)nc(C(F)(F)F)c(C#N)c3c2=O)c2scc(C(=O)O)c2n1 [compound 730]
< 0.05 µM,0.00597 µM,Cc1cc(-c2cc(Cl)ccc2OCCn2c(C)nc3c(C)ncc(C#N)c3c2=O)c2scc(C(=O)NS(C)(=O)=O)c2n1 [compound 731]
0.05 to 1 µM,0.874 µM,Cc1cc(-c2cc(Cl)ccc2OCCn2c(C)nc3c(C)ncc(C#N)c3c2=O)c2scc(C(O)(O)C(F)(F)F)c2n1 [compound 732]
> 1 µM,1.73 µM,Cc1cc(-c2cc(Cl)ccc2OCCn2c(C)nc3c(C)ncc(C#N)c3c2=O)c2scc(C(O)C(F)(F)F)c2n1 (stereo not drawn) [compound 733]

IC50 [1],IC50 [2],SMILES
0.05 to 1 µM,0.058 µM,Cc1cc(-c2cc(Cl)ccc2OCCn2c(C)nc3cc(C(F)(F)F)c(-c4cccnc4C)c(C#N)c3c2=O)c2scc(C(=O)O)c2n1 [compound 735]
< 0.05 µM,0.017 µM,Cc1cc(-c2cc(Cl)ccc2OCCn2c(C)nc3cc(C(F)(F)F)c(-c4cnccc4C)c(C#N)c3c2=O)c2scc(C(=O)O)c2n1 [compound 736]
< 0.05 µM,0.0123 µM,Cc1cc(-c2cc(Cl)ccc2OCCn2c(C)nc3c(C)nc(-c4ccccc4)c(C#N)c3c2=O)c2scc(C(=O)O)c2n1 [compound 737]
< 0.05 µM,0.0193 µM,Cc1cc(-c2cc(Cl)ccc2OCCn2c(C)nc3cc(C(F)(F)F)c(CN4CCN(C(C)(C)C)CC4)c(C#N)c3c2=O)c2scc(C(=O)O)c2n1 [compound 738]
< 0.05 µM,0.0308 µM,Cc1cc(-c2cc(Cl)ccc2OCCn2c(C)nc3cc(C(F)(F)F)c(CN4CCN(CC(F)F)CC4)c(C#N)c3c2=O)c2scc(C(=O)O)c2n1 [compound 739]
< 0.05 µM,0.0152 µM,Cc1cc(-c2cc(Cl)ccc2OCCn2c(C)nc3cc(Cl)c(N4CCN(C)CC4)c(C#N)c3c2=O)c2sc(C)c(C(=O)O)c2n1 [compound 741]
< 0.05 µM,0.0325 µM,Cc1cc(-c2cc(Cl)ccc2OCCn2c(C)nc3c(C)nc(C4CC4)c(C#N)c3c2=O)c2scc(C(=O)O)c2n1 [compound 742]
0.05 to 1 µM,0.188 µM,Cc1ccc(-c2cc(Cl)ccc2OCCn2c(C)nc3c(C#N)nc(-c4ccccn4)c(C)c3c2=O)c2scc(C(=O)O)c12 [compound 743]
< 0.05 µM,0.0189 µM,CCc1cc(-c2cc(Cl)ccc2OCCn2c(C)nc3cc(C(F)(F)F)c(-c4ccccn4)c(C#N)c3c2=O)c2scc(C(=O)O)c2n1 [compound 747]
< 0.05 µM,0.0163 µM,Cc1cc(-c2cc(Cl)ccc2OCCn2c(C)nc3cc4c(c(C#N)c3c2=O)CCC4)c2scc(C(=O)O)c2n1 [compound 748]
> 1 µM,> 100 µM,Cc1cc(-c2cc(Cl)ccc2OCCn2c(C)nc3c(C)ncc(C#N)c3c2=O)c2scc(C(O)(C(F)(F)F)C(F)(F)F)c2n1 [compound 749]
0.05 to 1 µM,0.0698 µM,Cc1cc(-c2cc(Cl)ccc2OCCn2c(C)nc3cc(C(F)(F)F)c(-c4ncccc4F)c(C#N)c3c2=O)c2scc(C(=O)O)c2n1 [compound 751]
< 0.05 µM,0.0276 µM,Cc1cc(-c2cc(Cl)ccc2OCCn2c(C)nc3cc(Cl)c(N4CCC4)c(C#N)c3c2=O)c2scc(C(=O)O)c2n1 [compound 752]
< 0.05 µM,0.0138 µM,Cc1c(C(F)(F)F)cc2nc(C)n(CCOc3ccc(Cl)cc3-c3cn(C)c(=O)c4c(C(=O)O)csc34)c(=O)c2c1C#N [compound 753]
< 0.05 µM,0.0172 µM,Cc1c(C(F)(F)F)cc2nc(C)n(CC#Cc3ccc(Cl)cc3-c3cn(C)c(=O)c4c(C(=O)O)csc34)c(=O)c2c1C#N [compound 754]
< 0.05 µM,0.0432 µM,Cc1nc2cnc(C3CC3)c(C#N)c2c(=O)n1CCOc1ccc(Cl)cc1-n1cnc2c(C(=O)O)cccc21 [compound 756]
0.05 to 1 µM,0.137 µM,CSc1c(-c2cc(Cl)ccc2OCCn2c(C)nc3cnc(C4CC4)c(C#N)c3c2=O)ccnc1C(=O)O [compound 757]
< 0.05 µM,0.0131 µM,Cc1cc(-c2cc(Cl)ccc2OCCn2c(C)nc3cc(Cl)c(-c4cccc(C(F)F)n4)c(C#N)c3c2=O)c2scc(C(=O)O)c2n1 [compound 758]
0.05 to 1 µM,0.0529 µM,Cc1cc(-c2cc(Cl)ccc2OCCn2c(C)nc3cc(-c4cccnc4)c(C)c(C#N)c3c2=O)c2scc(C(=O)O)c2n1 [compound 759]

SMILES,IC50 [1],IC50 [2]
Cc1cc(-c2cc(Cl)ccc2OCCn2c(C)nc3cc(C(F)(F)F)c(CN4CC5CCC(C4)N5C)c(C#N)c3c2=O)c2scc(C(=O)O)c2n1 [compound 740],< 0.05 µM,0.0392 µM
